Entries after “also recorded” stand apart in the source; their conditions may differ.
How the values were obtained:
[1] = T1-weighted relaxivity (r1) on 3 T clinical MRI scanner; type: physicochemical; conditions: for r1 after addition of H2O2 / r1, second series of experiments, after H2O2 (oxidized form) / r1, second series of experiments, before H2O2 (reduced form) / r1 (T1-weighted relaxivity): 50 mM HEPES pH 7.00, 3 T; for r1 after addition of H2O2 / r1 (T1-weighted relaxivity): 25° C.; for r1, second series of experiments, after H2O2 (oxidized form) / r1, second series of experiments, before H2O2 (reduced form): 298 K; for r1 (T1-weighted relaxivity): no oxidant
Text: All MRI data were collected at the Auburn University MRI Research Center (Auburn, Ala.) on a Siemens Verio open-bore 3-T MRI clinical scanner. A 15-channel knee coil was used to simultaneously image 12-26 samples. An inversion recovery (IR) sequence was used that featured a non-selective adiabatic inversion pulse followed by a slice-selective gradient recalled echo (GRE) readout after a delay period corresponding to the inversion time (TI).^1-2 The GRE was a saturation readout, such that only one line of k-space was acquired per repetition time (TR). This method was selected to maximize both the signal strength and the accuracy of the T1 estimates. Specific imaging parameters were as follows: TR was set to 4 s, TI was varied from 4.8 to 2500 ms over 37 steps, the echo time (TE) was set to 3.6 ms, the flip angle equaled 90°, averages=1, slice thickness=5 mm, field of view=140×140 mm, matrix=128×128, resulting in a pixel size of 1.1×1.1×5.0 mm. All samples were run in 50 mM solutions of HEPES in water, buffered to pH 7.0 and kept at […]. The manganese content was systematically varied from 0.10 to 1.00 mM. The inverses of the T1 values were plotted versus the concentration of Mn(II) to obtain r1 values. All reported r1 values are averages from the results of two separate series of experiments. Each series of experiments used a different batch of 1.
Image analysis was performed using custom Matlab programs (Mathworks, Natick, Mass.). The initial TI=4.8 ms image served as a baseline to determine circular region of interest (ROI) boundaries for each sample; from these, the mean pixel magnitudes for each ROI were calculated. For each of the 36 subsequent TI images, the same ROI boundaries were applied and the mean pixel magnitude calculations were repeated. This gave consistent ROI spatial definitions and a corresponding time course of magnitudes for each of the samples over all the TI time points. Each sample's complex phase was used to correct the magnitude polarity to produce a complete exponential T1 inversion recovery curve. The Nelder-Mead simplex algorithm^3 was applied to each sample's exponential curve to estimate its corresponding T1 value.
(§1) For the relaxivity measurements, all samples were run in 298 K aqueous solutions containing 50 mM HEPES buffered to pH 7.00, using a 3 T field provided by a clinical MRI scanner. The data were fit to the indicated linear equations; the y-intercepts were within error of 1/T1 measurements associated with two control samples that contained no Mn(II): (A) 10 mM H2O2 in 50 mM HEPES buffer and (B) pure 50 mM HEPES buffer (both 0.46 s^−1).
as §1, with “All” for “For the relaxivity measurements, all”, “s^−1). The oxidation of 1 by 2,3-dichloro-5,6-dicyano-1,4-benzoquinone (DDQ) occurred in CH2Cl2. After the reaction occurred, the 2,3-dichloro-5,6-dicyanoquinol product was removed via filtration, the CH2Cl2 was removed, and the sample was dissolve in HEPES buffer for MRI analysis. The other oxidation reactions occurred entirely in HEPES buffer.” for “s^−1).”
The capability of 3 to serve as a MRI contrast agent was assessed with a 3 T clinical MRI scanner. All samples were run in 298 K aqueous solutions containing 50 mM HEPES buffered to pH 7.00, using a 3 T field provided by a clinical MRI scanner. All samples were prepared under air. The oxidized samples were prepared by directly adding H2O2 to solutions of 3 in aqueous solutions buffered to pH 7.0. The oxidation reactions were allowed to proceed for 30 min at 298 K before the T1 measurements were taken. […]

[2] = Stability in aerobic solution / to pH; type: physicochemical
Procedure: Over this time, collected UV/vis spectra (FIGS. 2 & 3) display changes in the region between 200 nm and 300 nm which are consistent with the oxidation of the quinol to a para-quinone. Past 24 h, the solution begins to turn brown, consistent with oxidation of the manganese to Mn(III) and/or Mn(IV). For the spectrophotometric analysis, the Fe(ClO4)2 solution was added to a MeCN solution containing 0.10 mM [Mn(Hptp1)(MeCN)]^2+; the mixture was scanned at 0 min (dashed red), 30 min (dashed pink), and 60 min (dashed blue). […] At 15 h, approximately 11% of the Mn(II) has been displaced by Fe(II) as indicated by data in FIG. 3.
The stability of 3 to air and adventitious metal ions was assessed primarily by UV/vis spectroscopy. […] Complex 3, however, is susceptible to metal exchange. When equimolar amounts of 3 and Fe(ClO4)2 are mixed in MeCN, 80% of the Mn(II) is replaced by Fe(II) by 3 h.

| Molecule | r1 after addition of H2O2 ([1]; 10 mM H2O2) | r1, second series of experiments, after H2O2 (oxidized form) ([1]; 10 mM H2O2) | r1, second series of experiments, before H2O2 (reduced form) [1] | r1 (T1-weighted relaxivity) [1] | stability in aerobic solution [2] | increase of relaxivity upon exposure to H2O2 [1] | r1 response to H2O2 ([1]; 10 mM H2O2) | error introduced by air oxidation ([2]; aerated MeOH, 4 h) | decrease in intensity of 302 nm quinol feature ([2]; aerated MeOH, 12 h) |
| --- | --- | --- | --- | --- | --- | --- | --- | --- | --- |
| CC#N.O=S(=O)([O-])C(F)(F)F.O=S(=O)([O-])C(F)(F)F.[Mn+2].[O-]c1ccc(O)cc1CN(CCN(Cc1ccccn1)Cc1ccccn1)Cc1ccccn1 [Complex 1, Acetonitrilo(N-(2,5-dihydroxy-benzyl)-N,N′,N′-tris(2-pyridinylmethyl)-1,2-ethanediamine)manganese(II) triflate] | 5.30 mM⁻¹ s⁻¹ | 5.30 mM⁻¹ s⁻¹ | 4.73 mM⁻¹ s⁻¹ | 4.73 mM⁻¹ s⁻¹ | sufficiently stable in aerobic water solutions; also recorded: slightly sensitive towards oxygen | – | – | – | – |
| CC#N.Cc1ccc(O)c(CN(CCN(Cc2ccccn2)Cc2ccccn2)Cc2ccccn2)c1.[Mn+2].[O-][Cl+3]([O-])([O-])[O-].[O-][Cl+3]([O-])([O-])[O-] [Complex 2, reference compound] | – | – | – | 4.39 mM⁻¹ s⁻¹ | – | – | – | – | – |
| cis-Dibromo(N,N′-bis(2,5-dihydroxybenzyl)-N,N′-bis(2-pyridinylmethyl)-1,2-ethanediamine)manganese(II) [Complex 3] | 7.17 (+0.15) mM^−1 s^−1 | 7.32 mM⁻¹ s⁻¹ | 5.64 mM⁻¹ s⁻¹ | 5.46 (+0.19) mM^−1 s^−1 | moderately stable in aerobic aqueous solutions above pH 7.0 | 31% | 1.71 mM⁻¹ s⁻¹ | < 5% | about 10% |
